Test results taken from ChEMBL document CHEMBL5370666, “Covalent Peptide LSD1 Inhibitor Specifically Recognizes Cys360 in the Enzyme-Active Region” (J Med Chem, 2023).
One block for each molecule: values may come before it. The source made the active and inactive calls. The rule behind the calls is not given here. *1 amine or outer side, *2 acyl side, *3 side chain or, on linkers, in order; H or OH if unused. Where a SMILES comes first, the peptide text is derived from it. Bridges are numbered along the chain shown (N, C = ends). [ ]: non-standard residue; d: D form. The star is where a group is joined. Met(S-mXyl) = C[S+](CC[C@H](N[*:1])C(=O)[*:2])Cc1cccc(C[*:3])c1; Biotin = O=C1N[C@H]2[C@H](CS[C@H]2CCCCC(=O)*)N1

Key:
T47D [1] = assay: Induction of apoptosis in human T47D cells assessed as early apoptotic cells incubated for 24 hrs by Annexin V-FITC/PI staining based flow cytometry (reference value: 0.274 %); type: functional
[2] = Toxicity in athymic nude BALB/c ASlac-nu mouse xenografted with human A549 cells assessed as body weight loss at 20 mg/kg, sc everyday for 28 days; type: organism-based; settings: in vivo, 672 h, time 28 day
T47D [3] = assay: Induction of apoptosis in human T47D cells assessed as late apoptotic cells incubated for 24 hrs by Annexin V-FITC/PI staining based flow cytometry (reference value: 0.898 %); type: functional
A549 [4] = assay: In vivo inhibition of LSD1 in human A549 cells xenografted in athymic nude BALB/c ASlac-nu mouse at 20 mg/kg, sc everyday for 28 days by IHC analysis; type: functional, organism-based; settings: time 28.0 day
A549 [5] = assay: Induction of cell cycle arrest in human A549 cells assessed as cell accumulation at S phase at 50 uM incubated for 24 hrs by RNase/PI staining based flow cytometry (reference value: 39.60 %); type: functional
T47D [6] = assay: Induction of apoptosis in human T47D cells assessed as viable cells incubated for 24 hrs by Annexin V-FITC/PI staining based flow cytometry (reference value: 98.6 %); type: functional
T47D [7] = assay: Induction of apoptosis in human T47D cells assessed as necrotic cells incubated for 24 hrs by Annexin V-FITC/PI staining based flow cytometry (reference value: 0.243 %); type: functional
A549 [8] = assay: Induction of cell cycle arrest in human A549 cells assessed as cell accumulation at G1 phase at 50 uM incubated for 24 hrs by RNase/PI staining based flow cytometry (reference value: 49.19 %); type: functional
A549 [9] = assay: Induction of cell cycle arrest in human A549 cells assessed as cell accumulation at G2 phase at 50 uM incubated for 24 hrs by RNase/PI staining based flow cytometry (reference value: 9.81 %); type: functional
A549 [10] = assay: Cytotoxicity against human A549 cells assessed as cell viability at 100 uM incubated for 24 hrs by MTT assay relative to control; settings: A549, 24 h, read-out: Activity
T47D [11] = assay: Cytotoxicity against human T47D cells assessed as cell viability at 100 uM incubated for 24 hrs by MTT assay relative to control; settings: read-out: Activity
[12] = target: Apoptosis regulator Bcl-2 (Homo sapiens) (UniProt P10415); assay: Binding affinity to BCL2 (unknown origin) at 50 uM incubated for 12 hrs by SDS-PAGE analysis
Chain of Apoptosis regulator Bcl-2 (Homo sapiens) (P10415 whole entry): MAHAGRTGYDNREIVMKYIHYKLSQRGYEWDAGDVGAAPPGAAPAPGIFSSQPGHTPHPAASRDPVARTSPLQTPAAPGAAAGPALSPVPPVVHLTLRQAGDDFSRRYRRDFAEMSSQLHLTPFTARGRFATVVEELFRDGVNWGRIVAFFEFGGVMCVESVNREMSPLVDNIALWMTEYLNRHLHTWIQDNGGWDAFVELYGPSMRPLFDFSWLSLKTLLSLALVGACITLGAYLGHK

[13] = target: T1, Amine oxidase [flavin-containing] A (Homo sapiens, UniProt P21397); assay: Inhibition of MAO-A (unknown origin) incubated for 10 mins by fluorescence based assay
T1 sequence (P21397 whole entry): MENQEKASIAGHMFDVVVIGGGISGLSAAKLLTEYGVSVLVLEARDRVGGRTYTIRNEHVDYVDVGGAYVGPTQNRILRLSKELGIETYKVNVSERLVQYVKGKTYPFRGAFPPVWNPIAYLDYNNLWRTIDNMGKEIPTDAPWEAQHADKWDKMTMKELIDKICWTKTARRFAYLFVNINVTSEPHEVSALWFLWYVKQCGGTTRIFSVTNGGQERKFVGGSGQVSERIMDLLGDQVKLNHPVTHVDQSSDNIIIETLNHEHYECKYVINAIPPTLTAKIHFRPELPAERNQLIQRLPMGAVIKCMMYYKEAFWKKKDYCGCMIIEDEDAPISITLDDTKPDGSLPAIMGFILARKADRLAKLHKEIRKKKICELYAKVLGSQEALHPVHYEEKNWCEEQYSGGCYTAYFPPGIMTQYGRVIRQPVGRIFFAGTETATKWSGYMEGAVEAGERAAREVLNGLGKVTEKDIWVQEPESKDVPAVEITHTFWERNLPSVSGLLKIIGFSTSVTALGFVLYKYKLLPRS

[14] = target: T2, Phospholipid hydroperoxide glutathione peroxidase GPX4 (Homo sapiens) (UniProt P36969); assay: Binding affinity to GPX4 (unknown origin) at 50 uM incubated for 12 hrs by SDS-PAGE analysis
T2 sequence (whole entry): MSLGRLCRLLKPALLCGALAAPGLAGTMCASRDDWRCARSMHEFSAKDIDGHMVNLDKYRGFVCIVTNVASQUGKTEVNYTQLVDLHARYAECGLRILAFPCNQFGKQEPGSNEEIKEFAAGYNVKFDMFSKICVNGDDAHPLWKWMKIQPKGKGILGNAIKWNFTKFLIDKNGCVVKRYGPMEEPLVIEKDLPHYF

A549 [15] = settings: Homo sapiens, dose 20.0 mg/kg, route sc, time 28.0 day
[16] = target: Lysine-specific histone demethylase 1A (Homo sapiens) (UniProt O60341); assay: Covalent binding affinity to full-length human LSD1 transfected in HEK293T cell lysate at 40 uM incubated overnight by biotin-pull down assay; type: subcellular

- Activity [12]: inactive
- inhibition (INH) [13]: Not Active
- Activity [14]: inactive
Molecule: CC(=O)N1CCC[C@H]1C(=O)N[C@@H](CCCNC(=N)N)C(=O)N[C@H]1CSCc2cccc(c2)C[S+](C)CC[C@@H](C(=O)N[C@@H](CCCCN)C(=O)N2CCC[C@H]2C(=O)N[C@@H](CCCNC(=N)N)C(=O)N[C@@H](CCCNC(=N)N)C(=O)N[C@@H](CCCNC(=N)N)C(=O)N[C@@H](CCCNC(=N)N)C(=O)N[C@@H](Cc2c[nH]c3ccccc23)C(N)=O)NC(=O)[C@H](C(C)C)NC(=O)[C@H](CC(C)C)NC(=O)[C@H](Cc2ccccc2)NC1=O (stereo not given in full) (Ac-PRCFLV[Met(S-mXyl)]KPRRRRW-NH2; thioether 3-7)
- viability at 100 µM (A549 [10]): ~19.9%
- viability at 100 µM (T47D [11]): ~7.4%
- Activity (T47D [1]): 0%
- Activity [2]: Non-Toxic
- Activity (T47D [3]): 46.7%
- inhibition (A549 [4]): Active
- Activity (A549 [5]): 27.23%
- inhibition (A549 [15]): Active
- Activity (T47D [6]): 2.14%
- Activity (T47D [7]): 51.2%
- Activity (A549 [8]): 60.61%
- Activity (A549 [9]): 12%

- inhibition (INH) [13]: Active
Molecule: C#CCN(C)CCCOc1ccc(Cl)cc1Cl [CLORGILINE]

- Activity [16]: Active
Molecule: CC(=O)N1CCC[C@H]1C(=O)N[C@@H](CCCNC(=N)N)C(=O)N[C@H]1CSCc2cccc(c2)C[S+](C)CC[C@@H](C(=O)N[C@@H](CCCCNC(=O)CCCC[C@@H]2SC[C@@H]3NC(=O)N[C@@H]32)C(=O)N2CCC[C@H]2C(=O)N[C@@H](Cc2c[nH]c3ccccc23)C(N)=O)NC(=O)[C@H](C(C)C)NC(=O)[C@H](CC(C)C)NC(=O)[C@H](Cc2ccccc2)NC1=O (stereo not given in full) (Ac-PRCFLV[Met(S-mXyl)]K(Biotin)PW-NH2; thioether 3-7)

Continued, molecule first:

Molecule: Ac-PRSFLVRKPRRRRW-NH2
- Activity (T47D [1]): 1.49%
- Activity [2]: Non-Toxic
- Activity (T47D [3]): 2.19%
- inhibition (A549 [4]): Active
- Activity (A549 [5]): 34.2%
- Activity (T47D [6]): 96.3%
- Activity (T47D [7]): 0.088%
- Activity (A549 [8]): 57.34%
- Activity (A549 [9]): 7.96%

Molecule: O=C(O)c1ccc(CN2CCC(CN[C@@H]3C[C@H]3c3ccccc3)CC2)cc1 [GSK2879552]
- Activity (T47D [1]): 1.62%
- Activity [2]: Non-Toxic
- Activity (T47D [3]): 1.74%
- inhibition (A549 [4]): Active
- Activity (A549 [5]): 36.7%
- Activity (T47D [6]): 95.9%
- Activity (T47D [7]): 0.743%
- Activity (A549 [8]): 53.15%
- Activity (A549 [9]): 9.92%
